d = 2'-deoxy (DNA); r = 2'-OH (RNA)
Tests used:
NFKBIZ mRNA = NFKBIZ mRNA expression by RT-qPCR in LPS-stimulated HCECs; type: cell-based, human; settings: LPS-stimulated (100 ng/mL) HCECs, 10 μM ASO or siRNA, without transfection reagent, 6 h + 48 h
Description: HCECs were inoculated in a 6-well plate at a density of 1×10^5 cells/well and cultured until adherence. The cells were then stimulated with 100 ng/mL lipopolysaccharide (LPS) overnight. After removing the supernatant, 1 mL of Opti-MEM medium containing ASONFKBIZ-h, ASONFKBIZ-h+Lipofectamine2000 (Lipo2000), and CsA-ASONFKBIZ-h (all containing 10 µM ASO) were added, respectively. Cells without any treatment were used as a blank reference (Mock). After incubation at 37° C. for 6 h, the cells were transferred into DMEM medium and incubated for another 48 h. The cells were collected and RNA was extracted for RT-qPCR to analyze the expression level of the NFKBIZ mRNA in HCECs, and experimental results were shown in FIG. 9. The expression level of NFKBIZ mRNA in HCECs after LPS stimulation was about 1.3 times that of normal cells. […] After adding CsA-ASONFKBIZ-h for co-incubation, the expression of NFKBIZ mRNA was reduced to about 0.8 times that of normal cells.
(§1) HCECs were inoculated in a 6-well plate at a density of 1×10^5 cells/well and cultured until adherence. The cells were then stimulated with 100 ng/mL LPS overnight. After removing the supernatant, 1 mL of Opti-MEM medium containing ASONFKBIZ-h+Lipo2000 complex and 2CsA-ASONFKBIZ-h nanomicelles (all containing 10 µM ASO) were added, respectively. After incubation at 37° C. for 6 h, the cells were transferred into DMEM medium and incubated for another 48 h. The cells were collected and RNA was extracted for RT-qPCR to analyze the expression level of the NFKBIZ mRNA in HCECs, and experimental results were shown in FIG. 12.
as §1, with “ng/ml” for “ng/mL”, “3CsA-ASONFKBIZ-h” for “2CsA-ASONFKBIZ-h”, “15.” for “12.”
HCECs were inoculated in a 6-well plate at a density of 1×10^5 cells/well and cultured until adherence. The cells were then stimulated with 100 ng/mL LPS overnight. 1 mL of Opti-MEM medium containing ASONFKBIZ-h+Lipo2000 complex and CsA3-ASONFKBIZ-h nanomicelles (all containing 10 µM ASO) were added, respectively. After incubation at […]. 37° C. for 6 h, the cells were transferred into DMEM medium and incubated for another 48 h. After collected and RNA was extracted for RT-qPCR to evaluate the expression level of NFKBIZ mRNA in HCECs, and the experimental results were shown in FIG. 23.
HCECs were inoculated in a 6-well plate at a density of 1×10^5 cells/well and cultured overnight until adherence. The cells were then stimulated with 100 ng/ml LPS for 12 h. After removing the supernatant, 1 mL of Opti-MEM medium containing siRNANFKBIZ-h+Lipo2000 complex and nCsA-siRNANFKBIZ-h (n=1, 2, 3) conjugates and nanomicelles (all containing 10 μM siRNA) were added, respectively. After incubation at 37° C. for 6 h, the cells were transferred into DMEM medium and incubated for another 48 h. The cells were collected and RNA was extracted for RT-qPCR to evaluate the expression of NFKBIZ mRNA in HCECs, and experimental results were shown in FIG. 27. […]

[1] = tested on: Human corneal epithelial cells (HCECs); test: Cellular uptake of FITC-labelled conjugate by flow cytometry; type: cell-based
Description: Human corneal epithelial cells (HCECs) were inoculated at a density of 5×10^4 cells/well in a 12-well plate and cultured overnight. After the medium was removed, 0.5 mL of fresh medium containing 10 μM or 100 μM CsA-ASONFKBIZ-h conjugate with FITC fluorescence was added and incubated with HCECs for 6 h, while a well plate without conjugate was used as a blank control (Mock group). After the incubation, the supernatant medium was discarded, and then the cells were digested with trypsin and washed 2 to 3 times with phosphate-buffered saline (PBS, pH=7.2). After the cells were collected, flow cytometric analysis was conducted using a flow cytometer, and experimental results were shown in FIGS. 8A-8B.

“3CsA-ASONFKBIZ-h: three CsA molecules coupled to 3DBCO ASO targeting human NFKBIZ (SEQ ID 5), self-assembled (ATCAGACAACGAATCGGGCNTNTT; three CsA via DBCO click; modified_base 20 OTHER; n is t base modified with DBCO moiety; modified_base 22 OTHER)” was tested, and the “expression of NFKBIZ mRNA relative to normal cells” value (NFKBIZ mRNA) was “about 0.75 times that of normal cells”.
In the case of “CsA-ASONFKBIZ-h: single cyclosporin A (CsA-N3) click-coupled to 3′-DBCO ASO targeting human NFKBIZ gene (SEQ ID NO: 1) (ATCAGACAACGAATCGGGC; 3'-DBCO ASO click-conjugated to one cyclosporin A, sugar and linkages not given here, further chemistry not given here)”, the cellular uptake ([1]; 10 μM or 100 μM FITC-labelled conjugate, 6 h) is reported as “effectively taken up by cells”, the “average fluorescence intensity of cells, 100 UM versus 10 μM conjugate” value ([1]; FITC-labelled conjugate, 6 h incubation, flow cytometry) is reported as “approximately 10 times” and the “expression of NFKBIZ mRNA relative to normal cells” value (NFKBIZ mRNA) is reported as “about 0.8 times that of normal cells”.
For “CsA-siRNANFKBIZ-h: one CsA coupled to sense strand of siRNA targeting human NFKBIZ (SEQ ID NO: 9/10) (sense GCCCGAUUCGUUGUCUGAUTT; antisense AUCAGACAACGAAUCGGGCTT; sugars from the 5' end r19 d2, backbone not given here; DBCO clicked to azide-modified cyclosporin A, further chemistry not fully specified)”, the “expression of NFKBIZ mRNA relative to normal cells” value (NFKBIZ mRNA) was “level before LPS stimulation”.

Reference: patent US20250367302A1, “SMALL MOLECULE DRUG-OLIGONUCLEOTIDE CONJUGATE AND USE THEREOF” (SHANGHAI JIAO TONG UNIVERSITY, priority 2022, published 2025)
